Measurements from patent US10364263B2, “Cyclic phosphates and cyclic phosphoramidates for the treatment of neurologic disorders” (Retrophin, Inc., priority 2015, dated 2019).
Like-named read-outs stand apart in the source and are kept apart here.

Key:
[1] = tested on: PANK2 silenced human neuroblastoma IMR32 cells (PANK2−/−); experiment: Coenzyme A assay in PANK2 silenced cells (LC-MS quantification of free CoA); type: cell-based; conditions: compound added twice (24 h + 24 h), relative to 0.1% DMSO controls
How it was run: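 Free intracellular CoA was measured by positive-mode LC-MS/MS of 20% TFA extracts, taking 2 μl per 10^6 cells as intracellular volume. Cells were IMR32 with stable lentiviral PANK2 knockdown, dosed twice 24 h apart (48 h total, 0.1% DMSO). Output is fold increase over vehicle.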

[2] = Stability in human hepatocytes; type: in vitro ADME; conditions: for half-life at 5 µM: t1/2, Human Hepatocytes
[3] = Stability in mouse hepatocytes; type: in vitro ADME
[4] = Chemical stability in aqueous solution (phosphate buffered saline, NMR)
Experimental: To measure chemical stability in aqueous solution, the half-life (t1/2), or time needed for the concentration to decrease by half, was determined for select compounds in phosphate buffered saline solution. Compounds were dissolved in a solution containing 10 mM phosphate buffer (pH 7.5) and 5% of D2O to a final concentration of −1 mM. All spectra were obtained at 37° C. on a Bruker Avance 600 NMR spectrometer equipped with an inverse broad-band probe with z-gradients. Data were obtained every 15 min for a total time period of 4 h or longer, according to the observed stability. ^31P NMR was performed at 242.55 MHz, with gated decoupling of the protons. An observation frequency range of 14619.9 Hz and 32 K complex data points were used for acquisition. A pulse angle of 90° and a 4-sec pulse cycle were utilized. Thirty-two accumulations were obtained before Fourier transformation of the free induction decay. ^1H NMR spectra were acquired using the 1DNOESY experiment with water presaturation for better solvent suppression. An observation frequency range of 12019.23 Hz, a 10-sec pulse cycle, and 32 K complex data points were used for acquisition. Sixty-four scans were added prior to Fourier transformation. Integral data were obtained using the TopSpin software.
Stability was determined based on analysis of disappearance of the compounds as a function of incubation time. Quantification of test compounds was measured as a peak area relative to an internal standard. The elimination constant, k, was calculated by plotting mean disappearance values on a semi-logarithmic scale and fitting with a best fit linear regression. The half-life (t1/2) expressed in hours was derived using Equation 1: t1/2=ln2/(−k). Equation 1:

[5] = Permeability in porcine brain endothelial cell blood-brain barrier model; type: in vitro ADME; conditions: pig (endothelial cells), co-cultured with rat astrocytes, pH 7.4, PBECs/As blood-brain barrier model, luminal to basal
Text: Compounds disclosed herein show the potential to reach mammalian brain by crossing the blood-brain barrier (BBB) from systemic circulation. […] The porcine brain endothelial cell permeability assay is an in vitro BBB model to be used for the prediction of central nervous system (CNS) drug permeability in vivo and for ranking or prioritization of compounds according to their permeability. This system can also be used for mechanistic studies and drug delivery strategies via receptor-mediated transport (transcytosis). The system is a two-dimensional co-culture, non-contact model of two types of primary cells: primary brain endothelial cells obtained from fresh porcine brains, and primary rat astrocytes, obtained from neonatal rats. This ensures barrier formation and functional expression of key transporters.
The endothelial cells were cultured on rat-tail collagen type I and human fibronectin coated Transwell polycarbonate inserts (surface area 0.7 cm^2; pore size 0.4 μm) and the inserts were placed in 24-well plates containing confluent rat astrocytes. This system allows for the formation of a differentiated BBB model suitable for compound permeability in 10 days.
On the day of the experiment, culture medium was removed and cells were pre-incubated for 30 min with HBSS containing 20 mM Hepes pH 7.4 and 0.1% BSA. Donor volume (apical) was 400 μl and receiver volume (basal) 900 μl. Compounds were diluted in assay medium (at the desired concentration) and added to the luminal side (to mimic blood to brain passage). Transport was measured usually after 60 min by detecting the amount of compound from the basal (brain side). The integrity of the cell layers was assessed by measuring the transendothelial electrical resistance (TEER) and by monitoring FITC-dextran (40 KDa) permeation. Inserts with TEER values […] were selected for permeability studies. As FITC-dextran cannot freely permeate lipophilic barriers, a high degree of FITC-dextran transport indicates poor integrity of the cell layer and wells with high FITC-dextran permeability were excluded. FITC-dextran was included as internal control in each insert used for permeability studies. Fluorescence was measured using a fluorimetric detector. Radioactivity was measured by scintillation counting. For LC-MS/MS analysis, aliquots (200 μl) from the basal compartment were diluted with an equal volume of 100% acetonitrile containing 0.1% formic acid, centrifuged to remove cell debris, and evaporated under N2. After reconstitution, samples were analyzed by LC-MS/MS. Mass balance was determined considering the amount of compound recovered in the donor and receiver chamber at the end of the assay relative to the amount added to the donor chamber at time 0.
Permeability was defined as the apparent permeability coefficient (Papp), which is a measure of the appearance rate of the compound in the receiver chamber, expressed in cm/s. Papp is calculated according the following equation: Papp[cm/sec]=Vd*ΔMr/A*Md*Δt, Equation 2: where
Vd=volume in the donor compartment in cm^3 or mL;
ΔMr=total amount of compound in the receiver compartment after t seconds;
Md=donor amount (added at time 0)
Δt=time measured in seconds
A=filter area in cm^2 (for 24 well plate, A=0.7 cm^2).
To correct for the contribution of filter and substrate, Papp was also determined for the cell-free system. Permeability of the endothelial cell layer was determined using the following equation: […], Equation 3: where
Ptotal=the P of the total system,
Pf=P for the cell-free filter, and
Pe=P for the endothelial cell layer alone. In this equation, the total resistance of the system towards passage of a substance is additively composed of two […] resistances: that of the cell monolayer and that of the filter.

[6] = Stability in mouse plasma; type: in vitro ADME; conditions: mouse, plasma; for t1/2, Mouse Plasma, Diastereoisomer B: 3 µM
How it was run: (§1)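 Test compound at 3 μM (0.1% DMSO) was incubated in mouse or human plasma at 37 °C and sampled in duplicate at 0, 10, 20, 30, 40 and 60 min. Reactions were stopped with acetonitrile/formic acid containing internal standard. Remaining parent was measured by UPLC-MS/MS without a calibration curve.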

[7] = Stability in human plasma; type: in vitro ADME; conditions: human, plasma, 37° C.
How it was run: as §1

[8] = t1/2, Mouse Hepatocytes, Diastereoisomer A
[9] = t1/2, Mouse Hepatocytes, Diastereoisomer B
[10] = pH 7.5, t1/2 (h) Diastereoisomer A, 10 mM phosphate buffer pH 7.5, 37° C., Diastereoisomer A = upfield shift in the 31P NMR
[11] = pH 7.5, t1/2 (h) Diastereoisomer B, 10 mM phosphate buffer pH 7.5, 37° C., Diastereoisomer B
[12] = Diastereoisomer A, read-out: Papp Diastereoisomer A
[13] = Diastereoisomer A (upfield shift in 31P NMR), read-out: t1/2, Human Plasma, Diastereoisomer A (converted)
[14] = Diastereoisomer B, read-out: t1/2, Human Plasma, Diastereoisomer B (converted)

Structure (SMILES) | PANK2−/− CoA (Fold Increase): fold increase in Coenzyme A (CoA) levels relative to controls [1] [Fold Increase] | half-life at 5 µM ([2]; Diastereoisomer A) [min] | half-life at 5 µM [3, 8] [min] | half-life at 1 mM [4, 10] [min] | Papp A→B at 60 min [5, 12] [×10⁻⁶ cm/s] | other results
COC(=O)CCNC(=O)[C@H](O)C(C)(C)COP1(=O)OCC(C)(C)[C@H](C(=O)NCCC(=O)OC)O1 (stereo partly drawn) [compound 59, methyl 3-((2R)-2-hydroxy-4-(((4R)-4-((3-methoxy-3-oxopropyl)carbamoyl)-5,5-dimethyl-2-oxido-1,3,2-dioxaphosphuian-2-yl)oxy)-3,3-dimethylbutanamido) propanoate] | 1.52 | 173 | 20.4 | 4800 |  | half-life at 5 µM ([2]; Diastereoisomer B): 92.4 min; half-life at 5 µM [3, 9]: < 15 min; half-life at 1 mM [4, 11]: 360 min
COC(=O)CCNC(=O)[C@@H]1O[P@](=O)(OCc2ccccc2)OCC1(C)C [compound 54, methyl 3-((2R,4R)-2-(benzyloxy)-5,5-dimethyl-2-oxido-1,3,2-dioxaphosphinane-4-carboxamido)propanoate] |  | < 15 | < 15 |  | 18.1 | 
CCc1cc(C(=O)OCO[P@]2(=O)OCC(C)(C)[C@H](C(=O)NCCC(=O)OC)O2)n(C)n1 (single isomer, unassigned) [Compound No. 2-129] | 88.66 |  |  |  |  | Papp A→B at 60 min ([5]; Diastereoisomer B, read-out: Papp Diastereoisomer B): 11.5 ×10⁻⁶ cm/s; half-life at 5 µM ([2]; Diastereoisomer B): < 15 min; half-life at 5 µM [3, 9]: < 15 min
COC(=O)[C@H](C)NP1(=O)OCC(C)(C)[C@H](C(=O)NCCC(=O)OCCN2CCCC2)O1 (stereo partly drawn) [compound 19, methyl ((4R)-5,5-dimethyl-2-oxido-4-((3-oxo-3-(2-(pyrrolidin-1-yl)ethoxy)propyl)carbamoyl)-1,3,2-dioxaphosphinan-2-yl)-L-alaninate] | 1.73 | 75.6 | 22.2 | 282 |  | half-life at 5 µM ([2]; Diastereoisomer B): 69.6 min; half-life at 5 µM [3, 9]: 18.6 min; half-life at 3 µM [6]: < 9.6 min; t1/2, Mouse Plasma, Diastereoisomer B [6]: <9.6 min; half-life at 3 µM [7, 13]: 27 min; half-life at 3 µM [7, 14]: > 60 min; half-life at 1 mM [4, 11]: 222 min
COC(=O)CCNC(=O)[C@@H]1OP(=O)(NCCc2ccncc2)OCC1(C)C (stereo partly drawn) [compound 111, methyl 3-((4R)-5,5-dimethyl-2-oxido-2-((2-(pyridin-4-yl)ethyl)amino)-1,3,2-dioxaphosphinane-4-carboxamido)propanoate] |  |  |  |  | 0.7 | half-life ([2]; Diastereoisomer A (upfield shift in 31P NMR), 5 μM, 1 million cells/ml, 37° C., human hepatocytes, read-out: t1/2, Human Hepatocytes, Diastereoisomer A (converted)): 171 min; half-life at 5 µM ([3]; Diastereoisomer A (upfield shift in 31P NMR), 5 μM, 1 million cells/ml, 37° C., mouse hepatocytes, read-out: t1/2, Mouse Hepatocytes, Diastereoisomer A (converted)): 28.8 min
COC(=O)CCNC(=O)[C@@H]1OP(=O)(OCCCN2CCOCC2)OCC1(C)C (stereo partly drawn) [compound 52, methyl 3-((4R)-5,5-dimethyl-2-(3-morpholinopropoxy)-2-oxido-1,3,2-dioxaphosphinane-4-carboxamido)propanoate] | 1.58 |  |  | 1410 |  | half-life at 3 µM [6]: < 9.6 min; t1/2, Mouse Plasma, Diastereoisomer B [6]: <9.6 min; half-life at 3 µM [7, 13]: > 60 min; half-life at 3 µM [7, 14]: > 60 min; half-life at 1 mM [4, 11]: 306 min
COC(=O)CCNC(=O)[C@@H]1O[P@@](=O)(OCc2ccccc2)OCC1(C)C [compound 56, methyl 3-((2S,4R)-2-(benzyloxy)-5,5-dimethyl-2-oxido-1,3,2-dioxaphosphinane-4-carboxamido)propanoate] |  | < 15 | < 15 | 276 | 18.7 | 
CC(C)OC(=O)OCO[P@@]1(=O)OCC(C)(C)[C@H](C(=O)NCCC(=O)O)O1 [2-130, 3-((2S,4R)-2-(((isopropoxycarbonyl)oxy)methoxy)-5,5-dimethyl-2-oxido-1,3,2-dioxaphosphinane-4-carboxamido)propanoic acid] | 43.5 |  |  |  | 1.84 | 
COC(=O)CCNC(=O)[C@@H]1O[P@@](OCCc2ccccc2)OCC1(C)C [compound 58, methyl 3-((2S,4R)-5,5-dimethyl-2-phenethoxy-1,3,2-dioxaphosphinane-4-carboxamido)propanoate] |  |  |  |  |  | half-life at 1 mM ([4]; pH 7.5): > 4800 min
COC(=O)CCNC(=O)[C@@H]1O[P@@](=O)(OCC(F)(F)F)OCC1(C)C [2-138, methyl 3-((2R,4R)-5,5-dimethyl-2-oxido-2-(2,2,2-trifluoroethoxy)-1,3,2-dioxaphosphinane-4-carboxamido)propanoate] | 1.13 | > 240 |  |  | 15.6 | 
CCc1cc(C(=O)OCO[P@@]2(=O)OCC(C)(C)[C@H](C(=O)NCCC(=O)OC)O2)n(C)n1 (single isomer, unassigned) [Compound No. 2-127] | 14.41 | 17.4 | < 15 |  | 11.8 | 
COC(=O)CCNC(=O)[C@@H]1O[P@@](=O)(OCCC(C)C)OCC1(C)C [compound 50, methyl 3-((2S,4R)-2-(isopentyloxy)-5,5-dimethyl-2-oxido-1,3,2-dioxaphosphinane-4-carboxamido)propanoate] |  |  |  | > 4800 |  | 
COC(=O)CCNC(=O)[C@@H]1OP(=O)(OCCCOCc2ccccc2)OCC1(C)C (stereo partly drawn) [compound 53, methyl 3-((4R)-2-(3-(benzyloxy)propoxy)-5,5-dimethyl-2-oxido-1,3,2-dioxaphosphinane-4-carboxamido)propanoate] |  | 34.2 | 16.8 | > 4800 |  | half-life at 5 µM ([2]; Diastereoisomer B): < 15 min; half-life at 5 µM [3, 9]: < 15 min; half-life at 1 mM [4, 11]: > 4800 min
COC(=O)CCNC(=O)[C@@H]1OP(=O)(O)OCC1(C)C [compound 55, methyl 3-((4R)-2-hydroxy-5,5-dimethyl-2-oxido-1,3,2-dioxaphosphinane-4-carboxamido)propanoate] | 1.92 |  |  |  |  | half-life at 1 mM ([4]; pH 7.5, t1/2 (h), pH 7.5, 37° C., compound not chiral at phosphorous, one value spanning both columns): > 3600 min
COC(=O)CCNC(=O)[C@@H]1O[P@@](=O)(OCN2C(=O)c3ccccc3S2(=O)=O)OCC1(C)C (single isomer, unassigned) [Compound No. 2-126] | 138.56 |  |  |  | 2.74 | 
